Tested on: yeast genes (expressed mRNA)
Assay: DNA chip measurement of expressed mRNA of yeast genes after culture with a toxic chemical substance
Assay type: cell-based, Saccharomyces cerevisiae S288C
Settings: for level of expressed mRNA in the presence of chemical substance / level in the absence of chemical substance: cultured two hours with the chemical substance; for The level of expressed mRNA in the presence of chemical substance/The level of expressed mRNA in the absence of chemical substance: cultured two hours with substance
Outline: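 Fluorescence ratio, treated over untreated, read by chip scanner; ratio of two or more counted significant. Cells: S288C yeast, YPD, 25° C, chemical added at log phase for 2 h at growth-inhibiting, sublethal level. Cy3/Cy5-labeled cDNA from oligo-dT-purified mRNA.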

[Cl][Pb][Cl] [(4), PbCl2]
level of expressed mRNA in the presence of chemical substance / level in the absence of chemical substance (yeast gene YNL058C): 1.7
level of expressed mRNA in the presence of chemical substance / level in the absence of chemical substance (yeast gene YNL063W): 1.4
The level of expressed mRNA in the presence of chemical substance/The level of expressed mRNA in the absence of chemical substance (yeast gene YNL074C): 1.2
The level of expressed mRNA in the presence of chemical substance/The level of expressed mRNA in the absence of chemical substance (yeast gene YNL092W): 1.8
The level of expressed mRNA in the presence of chemical substance/The level of expressed mRNA in the absence of chemical substance (yeast gene YNL115C): 1.4
The level of expressed mRNA in the presence of chemical substance/The level of expressed mRNA in the absence of chemical substance (yeast gene YNL156C): 1.3
level of expressed mRNA in the presence of chemical substance / level in the absence of chemical substance (yeast gene YNL176C): 1.0
level of expressed mRNA in the presence of chemical substance / level in the absence of chemical substance (yeast gene YNL194C): 15.2
level of expressed mRNA in the presence of chemical substance / level in the absence of chemical substance (yeast gene YNL200C): 2.0
The level of expressed mRNA in the presence of chemical substance/The level of expressed mRNA in the absence of chemical substance (yeast gene YNL234W): 1.8
level of expressed mRNA in the presence of chemical substance / level in the absence of chemical substance (yeast gene YNL253W): 1.0
level of expressed mRNA in the presence of chemical substance / level in the absence of chemical substance (yeast gene YNL276C): 0.3
The level of expressed mRNA in the presence of chemical substance/The level of expressed mRNA in the absence of chemical substance (yeast gene YNL281W): 1.4
The level of expressed mRNA in the presence of chemical substance/The level of expressed mRNA in the absence of chemical substance (yeast gene YNL305C): 1.4
level of expressed mRNA in the presence of chemical substance / level in the absence of chemical substance (yeast gene YNR051C): 0.6
The level of expressed mRNA in the presence of chemical substance/The level of expressed mRNA in the absence of chemical substance (yeast gene YNR068C): 2.6
level of expressed mRNA in the presence of chemical substance / level in the absence of chemical substance (yeast gene YOL026C): 1.4
The level of expressed mRNA in the presence of chemical substance/The level of expressed mRNA in the absence of chemical substance (yeast gene YOL032W): 1.3
The level of expressed mRNA in the presence of chemical substance/The level of expressed mRNA in the absence of chemical substance (yeast gene YOL036W): 0.8
The level of expressed mRNA in the presence of chemical substance/The level of expressed mRNA in the absence of chemical substance (yeast gene YOL047C): 2.5
The level of expressed mRNA in the presence of chemical substance/The level of expressed mRNA in the absence of chemical substance (yeast gene YOL071W): 2.0
The level of expressed mRNA in the presence of chemical substance/The level of expressed mRNA in the absence of chemical substance (yeast gene YOL082W): 2.1
The level of expressed mRNA in the presence of chemical substance/The level of expressed mRNA in the absence of chemical substance (yeast gene YOL083W): 2.8
The level of expressed mRNA in the presence of chemical substance/The level of expressed mRNA in the absence of chemical substance (yeast gene YOL117W): 1.4
The level of expressed mRNA in the presence of chemical substance/The level of expressed mRNA in the absence of chemical substance (yeast gene YOL131W): 1.0
The level of expressed mRNA in the presence of chemical substance/The level of expressed mRNA in the absence of chemical substance (yeast gene YOL150C): 0.9
The level of expressed mRNA in the presence of chemical substance/The level of expressed mRNA in the absence of chemical substance (yeast gene YOL162W): 1.4
The level of expressed mRNA in the presence of chemical substance/The level of expressed mRNA in the absence of chemical substance (yeast gene YOR019W): 4.7
level of expressed mRNA in the presence of chemical substance / level in the absence of chemical substance (yeast gene YOR022C): 1.2
level of expressed mRNA in the presence of chemical substance / level in the absence of chemical substance (yeast gene YOR087W): 1.3
level of expressed mRNA in the presence of chemical substance / level in the absence of chemical substance (yeast gene YOR138C): 0.8
The level of expressed mRNA in the presence of chemical substance/The level of expressed mRNA in the absence of chemical substance (yeast gene YOR197W): 1.4
level of expressed mRNA in the presence of chemical substance / level in the absence of chemical substance (yeast gene YOR253W): 1.4
level of expressed mRNA in the presence of chemical substance / level in the absence of chemical substance (yeast gene YOR267C): 0.9
level of expressed mRNA in the presence of chemical substance / level in the absence of chemical substance (yeast gene YOR325W): 0.3
level of expressed mRNA in the presence of chemical substance / level in the absence of chemical substance (yeast gene YPL005W): 1.0
The level of expressed mRNA in the presence of chemical substance/The level of expressed mRNA in the absence of chemical substance (yeast gene YPL087W): 7.3
level of expressed mRNA in the presence of chemical substance / level in the absence of chemical substance (yeast gene YPL150W): 0.9
level of expressed mRNA in the presence of chemical substance / level in the absence of chemical substance (yeast gene YPL152W): 1.8
level of expressed mRNA in the presence of chemical substance / level in the absence of chemical substance (yeast gene YPL168W): 1.4
level of expressed mRNA in the presence of chemical substance / level in the absence of chemical substance (yeast gene YPL180W): 0.6
level of expressed mRNA in the presence of chemical substance / level in the absence of chemical substance (yeast gene YPL188W): 1.0
The level of expressed mRNA in the presence of chemical substance/The level of expressed mRNA in the absence of chemical substance (yeast gene YPL196W): 1.7
The level of expressed mRNA in the presence of chemical substance/The level of expressed mRNA in the absence of chemical substance (yeast gene YPL206C): 1.9
level of expressed mRNA in the presence of chemical substance / level in the absence of chemical substance (yeast gene YPL221W): 1.8
The level of expressed mRNA in the presence of chemical substance/The level of expressed mRNA in the absence of chemical substance (yeast gene YPL222W): 1.3
level of expressed mRNA in the presence of chemical substance / level in the absence of chemical substance (yeast gene YPL225W): 1.6
The level of expressed mRNA in the presence of chemical substance/The level of expressed mRNA in the absence of chemical substance (yeast gene YPR023C): 0.8
level of expressed mRNA in the presence of chemical substance / level in the absence of chemical substance (yeast gene YPR049C): 1.0
level of expressed mRNA in the presence of chemical substance / level in the absence of chemical substance (yeast gene YPR146C): 0.9
level of expressed mRNA in the presence of chemical substance / level in the absence of chemical substance (yeast gene YPR148C): 1.3
The level of expressed mRNA in the presence of chemical substance/The level of expressed mRNA in the absence of chemical substance (yeast gene YPR151C): 4.1
level of expressed mRNA in the presence of chemical substance / level in the absence of chemical substance (yeast gene YPR172W): 1.2
